Data on 6 compounds can be found in patent publication US9938261B2, “Heterocyclic compounds and methods of use thereof” (AMBIT BIOSCIENCES CORPORATION, priority 2011, dated 2018).

The target of one assay is T1, KIT (Homo sapiens, UniProt P10721).
T1 construct: made in house
As to the kind of experiment: Competition binding assay, KIT Kd. An outline of the steps: (§1)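 Kinases as T7-phage fusions or HEK-293-expressed DNA-tagged constructs competed against immobilized biotinylated ligand on streptavidin beads, 1 h at room temperature in binding buffer. Bound kinase eluted and quantified by qPCR; Kd from eleven-point threefold dilution series.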

For another assay, the target named is T2, PDGFRβ (Homo sapiens, UniProt P09619).
T2 construct: made in house
As to the kind of experiment: Competition binding assay, PDGFRβ Kd. An outline of the steps:
as §1

Assay [1] addresses kinase panel containing either 386 or 392 distinct kinases. As to the kind of experiment: Kinase selectivity score S10 from competition binding panel. An outline of the steps: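 S10 is the number of kinases with percent-of-control under 10, divided by all distinct wild-type kinases tested, from a single 10 μM concentration. Binding measured by qPCR of kinase recovered from ligand-coated beads after 1 h equilibrium at room temperature; kinases were phage fusions or DNA-tagged HEK-293 products.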

Assay [2] has as its target T3, CSF1R (Homo sapiens, UniProt P07333). As to the kind of experiment: Competition binding assay, CSF1R Kd. Further details: made in house. An outline of the steps: as §1
Assay [3] concerns the target T3, CSF1R. The assay can be described thus: HEK293 CSF1R phosphorylation MSD assay. Further details: expressed in transfected cells; host or cells: HEK293. Particulars: read-out: HEK293 pCSF1R M-CSF MSD:IC50. In kind it is cell-based. An outline of the steps: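 Ligand-induced CSF1R autophosphorylation was measured by MSD sandwich assay: CSF1R-FKBP from lysates captured via FK506, anti-phosphotyrosine readout. Cells were exposed to compound for 2 h (9-point, half-log, 0.5% DMSO) before 5 min 50 ng/mL M-CSF. Reported IC50 is the mean of duplicate-plate IC50s relative to DMSO control.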

Where [4] appears, read: compounds at 10 μM, 386 or 392 distinct kinases.
Setting [5] is: 2 h compound, human M-CSF 50 ng/mL for 5 min.

Like-named read-outs stand apart in the source and are kept apart here.

T3 sequence (P07333 20-972): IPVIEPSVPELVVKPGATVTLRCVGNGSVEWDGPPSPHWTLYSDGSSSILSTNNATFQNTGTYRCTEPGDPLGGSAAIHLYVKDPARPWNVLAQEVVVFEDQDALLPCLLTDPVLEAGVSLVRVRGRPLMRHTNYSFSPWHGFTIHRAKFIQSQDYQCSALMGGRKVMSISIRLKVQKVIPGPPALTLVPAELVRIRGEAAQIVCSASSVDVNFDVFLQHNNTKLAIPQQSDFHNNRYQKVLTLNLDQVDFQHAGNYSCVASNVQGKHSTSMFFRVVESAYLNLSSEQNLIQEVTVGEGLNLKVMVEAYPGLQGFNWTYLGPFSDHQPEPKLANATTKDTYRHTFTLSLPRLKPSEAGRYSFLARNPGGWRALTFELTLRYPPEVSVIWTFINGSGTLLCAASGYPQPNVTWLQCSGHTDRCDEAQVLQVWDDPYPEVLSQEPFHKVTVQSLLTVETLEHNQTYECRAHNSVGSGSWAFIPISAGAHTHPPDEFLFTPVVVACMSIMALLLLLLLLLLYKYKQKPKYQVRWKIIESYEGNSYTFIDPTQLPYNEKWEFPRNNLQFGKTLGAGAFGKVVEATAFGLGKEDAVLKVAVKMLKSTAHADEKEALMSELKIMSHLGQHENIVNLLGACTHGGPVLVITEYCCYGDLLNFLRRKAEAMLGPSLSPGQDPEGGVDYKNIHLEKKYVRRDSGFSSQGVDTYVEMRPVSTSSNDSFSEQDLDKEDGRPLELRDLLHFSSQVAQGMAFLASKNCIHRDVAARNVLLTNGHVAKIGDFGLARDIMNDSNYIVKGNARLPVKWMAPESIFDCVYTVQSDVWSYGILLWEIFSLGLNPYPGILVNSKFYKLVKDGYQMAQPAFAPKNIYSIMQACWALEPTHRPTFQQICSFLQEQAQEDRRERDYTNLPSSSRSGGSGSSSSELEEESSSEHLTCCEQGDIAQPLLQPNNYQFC
T2 sequence (P09619 33-1106): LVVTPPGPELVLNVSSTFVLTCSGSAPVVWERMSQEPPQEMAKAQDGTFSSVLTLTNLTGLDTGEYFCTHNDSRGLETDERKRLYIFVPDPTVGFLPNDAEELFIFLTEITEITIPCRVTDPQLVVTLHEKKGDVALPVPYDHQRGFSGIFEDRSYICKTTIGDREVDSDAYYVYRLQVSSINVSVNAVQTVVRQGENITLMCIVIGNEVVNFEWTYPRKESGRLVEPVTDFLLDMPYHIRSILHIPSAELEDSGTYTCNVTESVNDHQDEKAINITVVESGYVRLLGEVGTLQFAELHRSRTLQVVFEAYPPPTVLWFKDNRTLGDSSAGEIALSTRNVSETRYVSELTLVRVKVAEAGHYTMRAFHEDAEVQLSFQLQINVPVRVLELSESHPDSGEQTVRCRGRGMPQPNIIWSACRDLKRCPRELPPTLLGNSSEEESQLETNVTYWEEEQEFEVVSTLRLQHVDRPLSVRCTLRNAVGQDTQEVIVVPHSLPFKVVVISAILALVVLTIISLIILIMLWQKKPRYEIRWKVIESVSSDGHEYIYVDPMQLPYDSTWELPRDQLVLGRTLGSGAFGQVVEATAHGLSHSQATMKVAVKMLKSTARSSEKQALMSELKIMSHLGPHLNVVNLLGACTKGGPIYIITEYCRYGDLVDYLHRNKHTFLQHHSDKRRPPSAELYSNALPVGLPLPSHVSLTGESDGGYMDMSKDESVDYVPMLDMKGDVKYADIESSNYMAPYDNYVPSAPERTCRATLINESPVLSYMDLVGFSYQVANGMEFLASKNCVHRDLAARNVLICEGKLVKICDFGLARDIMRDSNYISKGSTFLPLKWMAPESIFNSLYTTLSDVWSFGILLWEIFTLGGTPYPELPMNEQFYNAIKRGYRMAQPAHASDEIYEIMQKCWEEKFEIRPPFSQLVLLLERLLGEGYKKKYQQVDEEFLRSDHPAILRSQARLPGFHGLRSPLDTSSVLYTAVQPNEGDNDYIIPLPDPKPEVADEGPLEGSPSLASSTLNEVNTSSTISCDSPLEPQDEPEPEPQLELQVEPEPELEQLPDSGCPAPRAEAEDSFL
T1 sequence (P10721 26-976): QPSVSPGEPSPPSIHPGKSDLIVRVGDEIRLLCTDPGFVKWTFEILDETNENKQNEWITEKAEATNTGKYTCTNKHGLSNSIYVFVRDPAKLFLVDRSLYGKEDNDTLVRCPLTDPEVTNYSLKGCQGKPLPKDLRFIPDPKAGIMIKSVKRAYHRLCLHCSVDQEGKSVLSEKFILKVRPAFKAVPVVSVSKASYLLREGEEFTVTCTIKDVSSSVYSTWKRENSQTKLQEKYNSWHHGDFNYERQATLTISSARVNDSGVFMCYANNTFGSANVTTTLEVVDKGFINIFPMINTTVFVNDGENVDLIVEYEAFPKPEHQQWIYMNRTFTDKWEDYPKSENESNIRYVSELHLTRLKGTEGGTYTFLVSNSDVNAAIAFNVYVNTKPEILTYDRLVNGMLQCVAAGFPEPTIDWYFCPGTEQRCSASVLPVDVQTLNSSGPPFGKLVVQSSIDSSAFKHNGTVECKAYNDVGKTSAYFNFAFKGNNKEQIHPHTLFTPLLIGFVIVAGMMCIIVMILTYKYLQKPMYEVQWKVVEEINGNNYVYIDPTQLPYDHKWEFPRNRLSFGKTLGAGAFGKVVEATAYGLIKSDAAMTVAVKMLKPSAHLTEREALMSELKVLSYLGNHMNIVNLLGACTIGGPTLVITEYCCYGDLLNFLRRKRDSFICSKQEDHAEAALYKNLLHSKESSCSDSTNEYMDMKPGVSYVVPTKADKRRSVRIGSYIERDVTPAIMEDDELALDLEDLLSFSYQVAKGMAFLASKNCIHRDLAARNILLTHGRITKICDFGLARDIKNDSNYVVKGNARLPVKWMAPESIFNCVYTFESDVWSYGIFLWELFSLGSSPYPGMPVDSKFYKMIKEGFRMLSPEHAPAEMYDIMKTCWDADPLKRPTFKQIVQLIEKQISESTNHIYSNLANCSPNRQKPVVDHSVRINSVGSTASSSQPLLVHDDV

As usually defined, the Kd is the free concentration of one partner at which half of the binding sites on the other are occupied at equilibrium, for simple one-to-one binding. Higher therefore signals a looser complex. As usually defined, the IC50 is the point on the concentration scale where inhibition reaches its midpoint. For `OCC1(CNc2nc3ccc(Cn4cnc5cccnc54)cc3s2)CCCCC1` [Example 76, (1-(((6-((3H-imidazo[4,5-b]pyridin-3-yl)methyl)benzo[d]thiazol-2-yl)amino)methyl)cyclohexyl)methanol], the values for the Kd on KIT, on PDGFRβ and at CSF1R [2] were not above 100 nM, not above 50 nM and not above 5 nM, respectively. The “Kinase specificity S(10)” value in assay [1] (setting [4]) is listed as “C (C>0.02)”. The IC50 on CSF1R [3] (setting [5]) is 50 to 200 nM.

Turning to `Cn1cc(-c2cnc3c(c2)ncn3Cc2ccc3nc(N[C@@H]4CCCC[C@H]4O)sc3c2)cn1` [Example 39, (1R,2R)-2-((6-((6-(1-methyl-1H-pyrazol-4-yl)-3H-imidazo[4,5-b]pyridin-3-yl)methyl)benzo[d]thiazol-2-yl)amino)cyclohexanol], the Kd is not above 100 nM at KIT, not above 50 nM on PDGFRβ and not above 5 nM at CSF1R [2]. The “Kinase specificity S(10)” value in assay [1] (setting [4]) is recorded as “C (C>0.02)”. Also, the IC50 on CSF1R [3] (setting [5]) was not above 50 nM.

For the compound `OC[C@H](Nc1nc2ccc(Cn3cnc4cccnc43)cc2s1)C1CCCCC1` [Example 64, (R)-2-((6-((3H-imidazo[4,5-b]pyridin-3-yl)methyl)benzo[d]thiazol-2-yl)amino)-2-cyclohexylethanol], the Kd on KIT was not above 100 nM; on PDGFRβ it was not above 50 nM; at CSF1R [2] it was 5 to 20 nM. Further, the “Kinase specificity S(10)” value in assay [1] (setting [4]) is listed as “C (C>0.02)”. Also, the IC50 at CSF1R [3] (setting [5]) was in the range of 200 to 500 nM.

As to `CS(=O)(=O)O.O[C@@H]1CCCC[C@H]1Nc1nc2ccc(Cn3cnc4cccnc43)cc2s1` [Example 3, (1R,2R)-2-((6-((3H-imidazo[4,5-b]pyridin-3-yl)methyl)benzo[d]thiazol-2-yl)amino)cyclohexanol methanesulfonic acid], the dissociation constant (Kd) at KIT was 100 to 500 nM; at PDGFRβ, 50 to 500 nM; on CSF1R [2] it was not above 5 nM. Further, in assay [1] (setting [4]), the “Kinase specificity S(10)” value is listed as “B (0.01<B≤0.02)”. Further, the 50% inhibitory concentration (IC50) on CSF1R [3] (setting [5]) was 50 to 200 nM.

With `O[C@@H]1CCCC[C@H]1Nc1nc2ccc(Cn3cnc4cccnc43)cc2o1` [Example 56, (1R,2R)-2-((6-((3H-imidazo[4,5-b]pyridin-3-yl)methyl)benzo[d]oxazol-2-yl)amino)cyclohexanol], the Kd was not above 100 nM on KIT, not above 50 nM at PDGFRβ and 5 to 20 nM at CSF1R [2]. Besides, in assay [1] (setting [4]), the “Kinase specificity S(10)” value is reported as “C (C>0.02)”. Besides, on CSF1R [3] (setting [5]), the IC50 fell in the range of 50 to 200 nM.

As to `O[C@@H]1CCCC[C@H]1Nc1nc2ccc(Cn3cnc4cc(-c5cc[nH]n5)ccc43)cc2s1` [Example 211, (1R,2R)-2-((6-((5-(1H-pyrazol-3-yl)-1H-benzo[d]imidazol-1-yl)methyl)benzo[d]thiazol-2-yl)amino)cyclohexanol], the figures for the Kd on KIT (competition binding), at PDGFRβ (competition binding) and at CSF1R [2] (competition binding) were not above 100 nM, not above 50 nM and not above 5 nM, respectively. In addition, the “Kinase specificity S(10)” value in assay [1] (10 μM, panel of 386 or 392 distinct kinases) was “C (C>0.02)”. Besides, the IC50 at CSF1R [3] (HEK293 cells, M-CSF stimulated CSF1R phosphorylation, MSD) is not above 50 nM.
